29 compounds from ChEMBL document CHEMBL1156784, “The permeation of amphoteric drugs through artificial membranes--an in combo absorption model based on paracellular and transmembrane permeability” (J Med Chem, 2010) can be followed below.

The nature of data set [1]: Oral bioavailability in human. Particulars: in vivo.
A short description of data set [2]: Permeability at pH 6.5 by PAMPA method. (In general: PAMPA measures passive passage across an artificial lipid membrane.)
For data set [3], the species on record is Homo sapiens. The experiment in a line: Clearance in human assessed as liver blood flow. The data set is classed as ADME, organism-based. Particulars: in vivo.
A short description of data set [4]: Octanol-water partition coefficient, log P of the compound.

SMILES strings stand for the structures.

In general, bioavailability refers to dose-corrected exposure relative to a reference, in per cent. Regarding `CC1COc2c(N3CCN(C)CC3)c(F)cc3c(=O)c(C(=O)O)cn1c23` (stereo unspecified) [OFLOXACIN], in data set [1], the bioavailability is 90%. One may read the Papp as a coefficient for how fast a substance crosses the barrier. In data set [2], `CN(C)[C@@H]1C(O)=C(C(N)=O)C(=O)[C@@]2(O)C(O)=C3C(=O)c4c(O)ccc(Cl)c4[C@@](C)(O)[C@H]3C[C@@H]12` [CHLORTETRACYCLINE] gave a Papp of 3.7 ×10⁻⁶ cm/s. In data set [1], the bioavailability amounted to 60%. For `Nc1nc2c(ncn2COCCO)c(=O)[nH]1` [ACYCLOVIR], the Papp in data set [2] was 0.8 ×10⁻⁶ cm/s. `CN(C)[C@@H]1C(O)=C(C(N)=O)C(=O)[C@@]2(O)C(O)=C3C(=O)c4c(O)ccc(Cl)c4[C@@H](O)[C@H]3C[C@@H]12` [DEMECLOCYCLINE] yielded a Papp in data set [2] of 3.8 ×10⁻⁶ cm/s. In data set [1], this compound returned a bioavailability of 66%. In data set [2], `N[C@@H](Cc1ccc(N(CCCl)CCCl)cc1)C(=O)O` yielded a Papp of 84 ×10⁻⁶ cm/s. Moreover, the LBF in data set [3] was found to be 30%. As to `CC1(C)S[C@@H]2[C@H](/N=C/N3CCCCCC3)C(=O)N2[C@H]1C(=O)O` [AMDINOCILLIN], in data set [2], the apparent permeability coefficient (Papp) was found to be 0.9 ×10⁻⁶ cm/s. Besides, in data set [1], the bioavailability is 10%. `Nc1nc(O)c2ncn(COC(CO)CO)c2n1` [GANCICLOVIR] had a bioavailability in data set [1] of 7.3%. For the compound `NC(N)=Nc1nc(CSCCC(N)=NS(N)(=O)=O)cs1` [FAMOTIDINE], in data set [2], the Papp was 0.6 ×10⁻⁶ cm/s. For the same compound, the bioavailability in data set [1] was 42%. For the same compound, the LBF in data set [3] is 16%. As for `CN(C)[C@@H]1C(O)=C(C(N)=O)C(=O)[C@@]2(O)C(O)=C3C(=O)c4c(O)cccc4[C@@](C)(O)[C@H]3C[C@@H]12` [TETRACYCLINE], the Papp in data set [2] was 3.8 ×10⁻⁶ cm/s. The compound also came in with a bioavailability in data set [1] of 78%. In data set [2], `C[C@H]1c2cccc(O)c2C(=O)C2=C(O)[C@]3(O)C(=O)C(C(N)=O)=C(O)[C@@H](N(C)C)[C@@H]3[C@@H](O)[C@@H]21.O` [DOXYCYCLINE] yielded a Papp of 20 ×10⁻⁶ cm/s. Still for that read-out and setting: as for `CN1C(C(=O)Nc2ccccn2)=C(O)c2ccccc2S1(=O)=O` [PIROXICAM], the figure is 20 ×10⁻⁶ cm/s. In turn, `CCn1cc(C(=O)O)c(=O)c2cc(F)c(N3CCNCC3)nc21` [ENOXACIN] gave a Papp in data set [2] of 7.7 ×10⁻⁶ cm/s. Besides, the bioavailability in data set [1] turned out to be 89%. In general, logP refers to the decadic logarithm of the partition coefficient of the neutral form, usually between octanol and water. Read a high logP as higher lipophilicity. In data set [2], `Nc1ccc(S(=O)(=O)Nc2ncccn2)cc1` [SULFADIAZINE] came in with a Papp of 1.2 ×10⁻⁶ cm/s. Moreover, in data set [1], the bioavailability was determined as 100%. Further, the logP in data set [4] is -0.08.

Compound `C[N+](C)(C)C[C@H](O)CC(=O)[O-]` [LEVOCARNITINE] had a Papp in data set [2] of 1.3 ×10⁻⁶ cm/s. The bioavailability in data set [1] was determined as 10%.

Regarding `Cc1cnc(NC(=O)C2=C(O)c3ccccc3S(=O)(=O)N2C)s1` [MELOXICAM], the bioavailability in data set [1] was determined as 89%. On to `Cc1cccc(Nc2ccncc2S(=O)(=O)NC(=O)NC(C)C)c1` [TORSEMIDE], for which the Papp in data set [2] was determined as 22 ×10⁻⁶ cm/s. The compound also showed a bioavailability in data set [1] of 80%.

In turn, `COc1cccc2c1C(=O)c1c(O)c3c(c(O)c1C2=O)C[C@@](O)(C(C)=O)C[C@@H]3O[C@H]1C[C@H](N)[C@H](O)[C@H](C)O1` [DAUNORUBICIN] registered a Papp in data set [2] of 0.3 ×10⁻⁶ cm/s. Besides, the bioavailability in data set [1] was 0%.

In turn, `CN(C)c1ccc(O)c2c1C[C@H]1C[C@H]3[C@H](N(C)C)C(O)=C(C(N)=O)C(=O)[C@@]3(O)C(O)=C1C2=O` [MINOCYCLINE] gave a Papp in data set [2] of 50 ×10⁻⁶ cm/s. Also, the bioavailability in data set [1] stood at 100%. `COCc1c(C(C)C)nc(C(C)C)c(/C=C/[C@@H](O)C[C@@H](O)CC(=O)O)c1-c1ccc(F)cc1` [CERIVASTATIN]: the bioavailability in data set [1] turned out to be 60%. The LBF in data set [3] was 10%.

`CC(C)(O/N=C(\C(=O)N[C@@H]1C(=O)N2C(C(=O)[O-])=C(C[n+]3ccccc3)CS[C@H]12)c1csc(N)n1)C(=O)O` [CEFTAZIDIME] yielded a Papp in data set [2] of 0.2 ×10⁻⁶ cm/s. Moreover, the bioavailability in data set [1] is 0%. In the same order, the values of `C[C@@H]1CN(c2c(F)c(N)c3c(=O)c(C(=O)O)cn(C4CC4)c3c2F)C[C@H](C)N1` [SPARFLOXACIN] are 42 ×10⁻⁶ cm/s and 92%.

Turning to `CCn1cc(C(=O)O)c(=O)c2cc(F)c(N3CCNC(C)C3)c(F)c21` (stereo unspecified) [LOMEFLOXACIN], in data set [2], the permeability is given as 15 ×10⁻⁶ cm/s. The same compound yielded a bioavailability in data set [1] of 97%. As for `N[C@@H]1[C@H]2CN(c3nc4c(cc3F)c(=O)c(C(=O)O)cn4-c3ccc(F)cc3F)C[C@@H]12` [TROVAFLOXACIN], in data set [2], the Papp is 57 ×10⁻⁶ cm/s. This compound also had a bioavailability in data set [1] of 88%. In turn, `CCOC(=O)[C@H](CCc1ccccc1)N[C@H]1CCc2ccccc2N(CC(=O)O)C1=O` [BENAZEPRIL] registered a Papp in data set [2] of 17 ×10⁻⁶ cm/s. For the same compound, the bioavailability in data set [1] was 37%. The compound `CCn1cc(C(=O)O)c(=O)c2cc(F)c(N3CCN(C)CC3)cc21` [PEFLOXACIN] gave a bioavailability in data set [1] of 95%. In turn, `Nc1ccc(O)c(C(=O)O)c1` [MESALAMINE] registered a Papp in data set [2] of 0.9 ×10⁻⁶ cm/s. The same compound yielded a bioavailability in data set [1] of 28%.

Compound `NCCCC[C@H](N[C@@H](CCc1ccccc1)C(=O)O)C(=O)N1CCC[C@H]1C(=O)O` [LISINOPRIL ANHYDROUS] yielded a bioavailability in data set [1] of 25%.

`CC(C)(C)NCC(O)c1cc(O)cc(O)c1` (stereo unspecified) [TERBUTALINE]: the Papp in data set [2] was determined as 1.4 ×10⁻⁶ cm/s. This compound also showed a bioavailability in data set [1] of 14%.

As for `COc1c(N2CCNC(C)C2)c(F)cc2c(=O)c(C(=O)O)cn(C3CC3)c12` (stereo unspecified) [GATIFLOXACIN], the Papp in data set [2] stood at 20 ×10⁻⁶ cm/s.
